Laboratory results: article PMC9623576, “Semisynthesis and Evaluation of Anti-Inflammatory Activity of the Cassane-Type Diterpenoid Taepeenin F and of Some Synthetic Intermediates” (Journal of Natural Products, 2022)
Where “and” joins values, the source holds several entries; their conditions need not be identical. Equal entries are not always repeated.

Experiments:
[1] = tested on: B16-F10 cells; assay: B16-F10 cell-cycle arrest and distribution, PI flow cytometry; assay type: cell-based, murine; details: B16-F10, 72 h
Experimental: The effects of the compounds 16 and 21 on the B16-F10 cell cycle were investigated using flow cytometry through propidium iodide staining. With this assay, we can determine a possible cytostatic effect related to the cytotoxic response and also measure DNA ploidy as well as alterations of cell-cycle profiles.[32]
The method used to quantify the amount of DNA in the different phases of the cell cycle (G0/G1, S, and G2/M) was performed by flow cytometry after propidium iodide staining (PI).[37] […] After treatment, the cells were washed twice with PBS, trypsinized, and resuspended in 1× TBS (10 mM Tris and 150 mM NaCl). After that, Vindelov buffer (100 mM Tris, 100 mM NaCl, 10 mg/mL Rnase, and 1 mg/mL PI, at pH 8) was added. Cells were stored on ice and, just before measurement, were stained with 20 μL of 1 mg/mL PI solution. Approximately, 10 × 10^3 cells were analyzed in each experiment. The experiments were performed three times with two replicates per assay. Finally, samples were analyzed using a flow cytometer, and the number of cells in each stage of the cell cycle was estimated by fluorescence-associated cell sorting (FACS) at 488 nm in an Epics XL flow cytometer (Coulter Corporation, Hialeah, FL, USA).

[2] = tested on: HT29 human colon adenocarcinoma cells; assay: MTT cancer cell proliferation assay, HT29; assay type: cell-based; details: Homo sapiens, HT29, 72 h, MTT; for IC50: HT-29, 72 h, read-out: IC50; for IC80 / IC20: HT-29; for IC20: read-out: IC20
Experimental: The five newly synthesized diterpenoids were evaluated for their cytotoxic effects against three selected tumor cell lines, B16-F10 murine melanoma cells, HT29 human colon adenocarcinoma cells, and HepG2 human hepatocarcinoma cells at increasing concentrations (0–100 μg/mL). After 72 h of treatment, cell viability was determined by an MTT assay, where the tetrazolium dye was transformed into formazan in the mitochondria of viable cells, its absorbance measured at 570 nm and expressed as a percentage with respect to untreated control cells (S3 Figure.). The concentrations required for 20, 50, and for 80% growth inhibition (IC20, IC50, and IC80) were also determined for each compound (Table 2).
(§1) A stock solution was frozen and stored at […]. Before the experiments, this solution was diluted in cell-culture medium to the adequate concentrations for each experiment. […] For nitrite assay, subcytotoxic concentrations (3/4IC50, 1/2IC50, and 1/4IC50), were used to ensure that the NO inhibitory potential was not due to a possible cytotoxic effect. The concentrations of 3/4IC50, 1/2IC50, and 1/4IC50 were used for the cell-cycle analysis. All experiments were measured and compared with control (untreated cells after 24, 48, or 72 h of treatment.)
Human colorectal adenocarcinoma cell line HT29 (ECACC no. 9172201; ATCC no. HTB-38), human hepatocarcinome cell line HepG2 (ECACC no. 85011430), mouse melanoma cells B16-F10 (ATCC no. CRL-6475), and murine monocyte/macrophage-like RAW 264.7 cell line (ATCC no, TIB-71) were cultured in DMEM (Dulbecco’s modified Eagle’s medium) supplemented with 2 mM glutamine, 10% heat-inactivated FCS (fetal calf serum), 10 000 units/mL of penicillin and 10 mg/mL of streptomycin, (for all cancer cell lines), 50 μg/mL of gentamicin (only for RAW 264.7 cell line), and incubated at 37 °C, in an atmosphere of 5% CO2 and 95% humidity. The culture media were changed every 48 h, and the confluent cultures were separated with a trypsin solution (0.25% EDTA). In all experiments, monolayer cells were grown to 80–90% confluence, in sterile cell culture flasks. All cell lines used were purchased from the cell bank of the University of Granada, Spain.
The cytotoxicity assay was performed by the MTT (3-(4,5-dimethylthiazol-2-yl)-2,5-diphenyltetrazolium bromide) method.[21] To quantify the cytotoxicity of compounds, the fresh and suspended cells were seeded in 96-well plates to a volume of 100 μL at 6.0 × 10^3 cells/mL for HT29 and RAW 264.7 cell lines, at 5.0 × 10^3 cells/mL for B16-F10 cells and 15.0 × 10^3 for Hep G2. Then, cells were incubated to adhere over 24 h at 37 °C with 5% CO2. All tested compounds were prepared in fresh growth medium. After 24 h, an additional 100 μL of medium with the corresponding concentrations of products (only medium in the control wells) was added to the corresponding wells, at various final concentrations (0–100 μg/mL). Finally, after 72 h of incubation at 37 °C with 5% CO2, the medium with the compounds were removed and 100 μL of MTT solution (0.5 mg/mL) in 50% of PBS 50% of medium was added to each well. After 1.5 h of incubation, formazan was resuspended in 100 μL of DMSO, and each concentration was tested in triplicate. Relative cell viability, with respect to untreated control cells, was measured by absorbance at 570 nm on an ELISA plate reader (Tecan Sunrise MR20-301, TECAN, Austria).
Cytotoxicity experimental data were fitted to a sigmoidal function (y = ymax/(x/a)^−b) by nonlinear regression. […] These analyses were performed using SigmaPlot 12.5 software. Similar analyses were performed to obtain the IC50 of NO production. All data shown here are representative of at least two independent experiments performed in triplicate. All quantitative data were summarized as the mean ± standard deviation (SD).

[3] = tested on: NO production in LPS-activated RAW 264.7 macrophage murine cells; assay: Inhibition of NO (nitrite) release, Griess reaction; assay type: cell-based
Experimental: The concentrations of nitrites were determined by the Griess reaction.
as §1
Nitrites production was analyzed through the Griess reaction. This nitrite concentration was used as an indicator of NO production.[35] Briefly, RAW 264.7 cells were plated at 6 × 10^3 cells/well in 24-well cell culture plates and supplemented with 10 μg/mL of lipopolysaccharide (LPS). […] The supernatants were collected at 48 and 72 h, to determine their nitrite concentrations and/or stored at −80 °C for further use.
The Griess reaction was performed taking 150 μL of supernatant test samples or sodium nitrite standard (0–120 μM) and mixed with 25 μL of Griess reagent A (0.1% N,N-(1-naphthyl) ethylenediaminedihydrochloride) and 25 μL of Griess reagent B (1% sulfanilamide in 5% of phosphoric acid), in a 96-well plate. After 15 min of incubation at room temperature, the absorbance was measured at 540 nm in an ELISA plate reader (Tecan Sunrise MR20–301, TECAN, Austria). The absorbance was referred to a nitrite standard curve to determine the concentration of nitrite in the supernatant of each experimental sample. The percentage of NO production was determined, assigning 100% at the increase between negative control (untreated cells) and positive control (cells only treated with 10 μg/mL of LPS).

SMILES | cells in the G0/G1 phase ([1]; IC80 concentration) | cells in the S phase ([1]; IC80 concentration) | decrease of S phase cells compared to untreated control cells ([1]; IC80 concentration) | increase of G0/G1 cells over untreated control cells ([1]; IC80 concentration) | IC50 [2] | IC80 [2] | IC20 [2] | inhibition of NO release ([3]; 48 h, 1/2IC50 concentration) | inhibition of NO release ([3]; 48 h, 3/4IC50 concentration) | inhibition of NO release ([3]; 72 h, 3/4IC50 concentration) | cells in the G0/G1 phase ([1]; IC50 concentration) | cells in the S phase ([1]; IC50 concentration) | decrease of S phase cells compared to untreated control cells ([1]; IC50 concentration) | increase of G0/G1 cells over untreated control cells ([1]; IC50 concentration)
COC(=O)[C@]1(C)CCC[C@@]2(C)[C@H]1CC=C1C(C)=C(C(C)C)C(=O)C[C@@H]12 [Compound 16, (1R,4aR,10aR)-Methyl 7-isopropyl-1,4a,8-trimethyl-6-oxo-1,2,3,4,4a,4b,5,6,10,10a-decahydrophenanthrene-1-carboxylate] | 76.36% | 22.42% | 16.79% | 18.24% | 33.4 ± 2.16 µM | 55 ± 0.93 µM | 21.4 ± 3.09 µM | 59.95% | 85.13% | 80% | – | – | – | –
COC(=O)[C@]1(C)CCC[C@]2(C)c3cc(O)c(C=O)c(C)c3CC[C@@H]12 [Compound 21, (1R,4aS,10aR)-Methyl 7-formyl-6-hydroxy-1,4a,8-trimethyl-1,2,3,4,4a,9,10,10a-octahydrophenanthrene-1-carboxylate] | 70.55% | 29.45% | 9.76% | 12.43% | 20.1 ± 0.61 µM | 30.6 ± 0.81 µM | 13.5 ± 0.55 µM | – | 76.49% and 76% | 91% | 71.87% | 27.95% | 11.26% | 13.75%
